One series has as its system Strep. faecalis MGH-2. The experiment in a line: in vitro antibacterial activity, microtitration dilution (MIC), Strep. faecalis MGH-2. It counts as cell-based. Conditions: Enterococcus faecalis, MGH2, read-out: minimum inhibiting concentration (MIC). Put shortly:
(§1)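 MIC determined in vitro by microtitration broth dilution; values reported in μg/mL.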

Series [1] concerns Esch. coli Vogel. The experiment in a line: in vitro antibacterial activity, microtitration dilution (MIC), Esch. coli Vogel. Conditions: Escherichia coli, read-out: minimum inhibiting concentration (MIC). It counts as cell-based. The essentials: as §1
For series [2], the system named is Strep. pheumoniae SV-1. The experiment in a line: median protective dose in mice given lethal systemic infections, Strep. pneumoniae SV-1. The format is in vivo. Conditions: Streptococcus pneumoniae, single dose at time of challenge, read-out: median protective dose (PD50). As for the experimental part:
(§2) The in vivo activity is obtained when the compounds are tested according to the procedure of Miller, et al (Proc. Soc. Exp. Biol. Med. 57, 261, 1944). The median protective dose (PD50) was determined in mice given lethal systemic infections. Single doses of compound were given at time of challenge.
(§3) By use of the above methods, the following minimum inhibiting concentration values (MICs in μg/mL), PD50 's in mg/kg, no effect phototoxicity dose in mg/kg and the cytotoxicity IC50 in μg/mL were obtained for representative enantiomers of the invention and compounds of the prior art as shown in the table.
(§4) The in vivo data as PD50 s are reported below the line of MICs for the same compound.

The subject of a further series is Klebs. pneumoniae MGH-2. Kind of series: in vitro antibacterial activity, microtitration dilution (MIC), Klebs. pneumoniae MGH-2. It counts as cell-based. Conditions: Klebsiella pneumoniae, MGH2, read-out: minimum inhibiting concentration (MIC). Put shortly: as §1
In another series the test system is Ent. cloacae MA2646. The experiment in a line: in vitro antibacterial activity, microtitration dilution (MIC), Ent. cloacae MA2646. It counts as cell-based. Conditions: Enterobacter cloacae, read-out: minimum inhibiting concentration (MIC). The essentials:
as §1

In another series the test system is Pseud. aeruginosa UI-18. The experiment in a line: in vitro antibacterial activity, microtitration dilution (MIC), Pseud. aeruginosa UI-18. Conditions: Pseudomonas aeruginosa, UI18, read-out: minimum inhibiting concentration (MIC). The format is cell-based. Put shortly: as §1
Series [3] concerns Strep. pheumoniae SV-1. The experiment in a line: in vitro antibacterial activity, microtitration dilution (MIC), Strep. pneumoniae SV-1. It counts as cell-based. Conditions: Streptococcus pneumoniae, SV1, read-out: minimum inhibiting concentration (MIC). Put shortly:
as §1

In series [4] the test system is Strep. pyogenes C-203. The experiment in a line: in vitro antibacterial activity, microtitration dilution (MIC), Strep. pyogenes C-203. The note with it: Streptococcus pyogenes, C203, read-out: minimum inhibiting concentration (MIC). It counts as cell-based. The essentials: as §1
The test system of a further series is Prot. rettgeri M 1771. Kind of series: in vitro antibacterial activity, microtitration dilution (MIC), Prot. rettgeri M 1771. It counts as cell-based. The note with it: Providencia rettgeri, M1771, read-out: minimum inhibiting concentration (MIC). Put shortly:
as §1

A further series deals with Staph. aureus H 228. The experiment in a line: in vitro antibacterial activity, microtitration dilution (MIC), Staph. aureus H 228. The format is cell-based. The note with it: Staphylococcus aureus, H228, read-out: minimum inhibiting concentration (MIC). Put shortly: as §1
A further series relates to Staph. aureus UC-76. The experiment in a line: in vitro antibacterial activity, microtitration dilution (MIC), Staph. aureus UC-76. Conditions: Staphylococcus aureus, UC76, read-out: minimum inhibiting concentration (MIC). The format is cell-based. The essentials: as §1
For series [5], the system named is Esch. coli Vogel. Kind of series: median protective dose in mice given lethal systemic infections, Esch. coli Vogel. The note with it: Escherichia coli, single dose at time of challenge, read-out: median protective dose (PD50). The format is in vivo. The protocol:
as §2, §3, §4

A short description of series [6]: cytotoxicity, hamster V-79 cells, colony reduction. The format is cell-based. The note with it: 3 hours treatment, colonies counted after 5 days, read-out: Cytotox (cytotoxicity IC50). As for the experimental part: The cytotoxicity data is obtained using hamster V-79 cells. The cells were suspended in tissue culture medium and grown overnight. Cells were treated with drug for 3 hours, washed free of drug and then replated, and the colonies counted after 5 days. The concentration of drug that reduced colones by 50% relative to control was recorded.
as §3

In series [7] the test system is Strep. pyogenes C-203. The experiment in a line: median protective dose in mice given lethal systemic infections, Strep. pyogenes C-203. It counts as in vivo. Conditions: Streptococcus pyogenes, single dose at time of challenge, read-out: median protective dose (PD50). The protocol:
as §2, §3, §4

The nature of a further series: in vivo. Also on record: species or system mice. The note with it: mouse, po. As for the experimental part:
The phototoxicity data is obtained using depilated mice. The compound was administered orally each day for four successive days, followed each day by 3 hours of UVA radiation. The mice were examined for any positive signs (redness, erythema) relative to control animals. The no effect dose and the 50% effect dose were determined. By use of the above methods, the following minimum inhibiting concentration values (MICs in μg/mL), PD50 's in mg/kg, no effect phototoxicity dose in mg/kg and the cytotoxicity IC50 in μg/mL were obtained for representative enantiomers of the invention and compounds of the prior art as shown in the table.

≈ marks a conversion by molar mass, not a printed value. Read-outs that look alike come from different tables or passages of the source.

On to `CCN[C@@H](C)[C@@H]1CCN(c2nc3c(cc2F)c(=O)c(C(=O)O)cn3-c2ccc(F)cc2F)C1` [Example 50, 3R,1S-7-[3-(1-N-ethylaminoethyl)-1-pyrrolidinyl]-1-(2,4-difluorophenyl)-6-fluoro-1,4-dihydro-4-oxo-1,8-naphthyridine-3-carboxylic acid], for which the MIC in the series with Strep. faecalis MGH-2 was 0.2 µg/mL (≈ 0.434 µM); in the series with Esch. coli Vogel [1] it was 0.4 µg/mL (≈ 0.869 µM); with Klebs. pneumoniae MGH-2, 0.8 µg/mL (≈ 1.74 µM); with Ent. cloacae MA2646, 0.8 µg/mL (≈ 1.74 µM); in the series on Pseud. aeruginosa UI-18, 3.1 µg/mL (≈ 6.73 µM); in the series with Strep. pheumoniae SV-1 [3], 0.1 µg/mL (≈ 0.217 µM). Besides, the MIC with Strep. pyogenes C-203 [4] stood at 0.1 µg/mL (≈ 0.217 µM); in the series with Prot. rettgeri M 1771 it was 1.6 µg/mL (≈ 3.47 µM); in the series with Staph. aureus H 228, 0.05 µg/mL (≈ 0.109 µM); in the series on Staph. aureus UC-76, 0.013 µg/mL (≈ 0.0282 µM). For the same molecule, the ED50 in the series with Strep. pheumoniae SV-1 [2] (SV1, PO) was 2 mg/kg; in the series on Strep. pheumoniae SV-1 [2] (SV1, SC) it was 2 mg/kg.

For `C[C@H](N)[C@H]1CCN(c2cc3c(cc2F)c(=O)c(C(=O)O)cn3C2CC2)C1` [Example 2, 3S,1S-1-cyclopropyl-6-fluoro-7-[3-(1-aminoethyl)-1-pyrrolidinyl]-1,4-dihydro-4-oxo-3-quinolinecarboxylic acid], the MIC in the series with Strep. faecalis MGH-2 came to 0.4 µg/mL (≈ 1.11 µM); in the series on Esch. coli Vogel [1] it was 0.2 µg/mL (≈ 0.556 µM); in the series on Klebs. pneumoniae MGH-2, 0.4 µg/mL (≈ 1.11 µM); with Ent. cloacae MA2646 it was 0.2 µg/mL (≈ 0.556 µM); with Pseud. aeruginosa UI-18, 1.5 µg/mL (≈ 4.17 µM); in the series on Strep. pheumoniae SV-1 [3], 0.2 µg/mL (≈ 0.556 µM). Further, the MIC with Strep. pyogenes C-203 [4] worked out at 0.1 µg/mL (≈ 0.278 µM); in the series with Prot. rettgeri M 1771, 0.8 µg/mL (≈ 2.23 µM); with Staph. aureus H 228 it was 0.8 µg/mL (≈ 2.23 µM); with Staph. aureus UC-76, 0.1 µg/mL (≈ 0.278 µM). The ED50 is over 100 mg/kg in the series on Strep. pheumoniae SV-1 [2] (SV1, PO); 12 mg/kg with Strep. pheumoniae SV-1 [2] (SV1, SC); 100 mg/kg in the series on Esch. coli Vogel [5] (PO); 4 mg/kg in the series on Esch. coli Vogel [5] (SC). Moreover, the CC50 at 3 h in series [6] amounted to 160 µg/mL (≈ 445 µM).

Consider `C[C@H](N)[C@@H]1CCN(c2cc3c(cc2F)c(=O)c(C(=O)O)cn3C2CC2)C1` [Example 3, 3R,1S-1-cyclopropyl-6-fluoro-7-[3-(1-aminoethyl)-1-pyrrolidinyl]-1,4-dihydro-4-oxo-3-quinolinecarboxylic acid], for which the MIC in the series on Strep. faecalis MGH-2 came out at 0.025 µg/mL (≈ 0.0696 µM); with Esch. coli Vogel [1] it was 0.05 µg/mL (≈ 0.139 µM); in the series on Klebs. pneumoniae MGH-2 it was 0.1 µg/mL (≈ 0.278 µM); with Ent. cloacae MA2646 it was 0.05 µg/mL (≈ 0.139 µM); in the series on Pseud. aeruginosa UI-18 it was 0.4 µg/mL (≈ 1.11 µM); in the series on Strep. pheumoniae SV-1 [3], 0.003 µg/mL (≈ 0.00835 µM). Also, the MIC was 0.003 µg/mL (≈ 0.00835 µM) with Strep. pyogenes C-203 [4], 0.2 µg/mL (≈ 0.556 µM) in the series on Prot. rettgeri M 1771, 0.05 µg/mL (≈ 0.139 µM) in the series with Staph. aureus H 228 and 0.003 µg/mL (≈ 0.00835 µM) in the series on Staph. aureus UC-76. For the same molecule, the ED50 in the series with Strep. pheumoniae SV-1 [2] (SV1, PO) is 11 mg/kg; in the series with Strep. pheumoniae SV-1 [2] (SV1, SC) it was 0.7 mg/kg; in the series with Esch. coli Vogel [5] (PO), 47 mg/kg; in the series on Esch. coli Vogel [5] (SC), 0.9 mg/kg. In addition, the CC50 at 3 h in [6] stood at 42 µg/mL (≈ 117 µM).

For `CN[C@@H](C)[C@@H]1CCN(c2nc3c(cc2F)c(=O)c(C(=O)O)cn3C2CC2)C1` [Example 21, 3R,1S-1-cyclopropyl-6-fluoro-7-[3-(1-N-methylaminoethyl)-1-pyrrolidinyl]-1,4-dihydro-4-oxo-1,8-naphthyridine-3-carboxylic acid], the MIC with Strep. faecalis MGH-2 is 0.05 µg/mL (≈ 0.134 µM); in the series on Esch. coli Vogel [1], 0.1 µg/mL (≈ 0.267 µM); with Klebs. pneumoniae MGH-2 it was 0.2 µg/mL (≈ 0.534 µM); with Ent. cloacae MA2646, 0.1 µg/mL (≈ 0.267 µM); in the series with Pseud. aeruginosa UI-18, 1.6 µg/mL (≈ 4.27 µM); in the series on Strep. pheumoniae SV-1 [3], 0.013 µg/mL (≈ 0.0347 µM). Besides, the MIC in the series on Strep. pyogenes C-203 [4] turned out to be 0.025 µg/mL (≈ 0.0668 µM); with Prot. rettgeri M 1771 it was 0.4 µg/mL (≈ 1.07 µM); in the series on Staph. aureus H 228, 0.05 µg/mL (≈ 0.134 µM); in the series on Staph. aureus UC-76, 0.0013 µg/mL (≈ 0.00347 µM). The ED50 in the series on Esch. coli Vogel [5] (PO) was determined as 1 mg/kg; in the series with Esch. coli Vogel [5] (SC) it was 0.5 mg/kg; in the series with Strep. pyogenes C-203 [7] (C203, PO) it was 2 mg/kg; in the series with Strep. pyogenes C-203 [7] (C203, SC) it was 2 mg/kg. Moreover, in series [6], the CC50 at 3 h worked out at 130 µg/mL (≈ 347 µM).

By NOAEL is commonly meant the highest tested level that showed no adverse finding. On to `C[C@H](N)[C@@H]1CCN(c2nc3c(cc2F)c(=O)c(C(=O)O)cn3C2CC2)C1` (relative stereo) [reference compound], for which the MIC in the series with Strep. faecalis MGH-2 is 0.05 µg/mL (≈ 0.139 µM); in the series on Klebs. pneumoniae MGH-2, 0.1 µg/mL (≈ 0.277 µM); in the series with Ent. cloacae MA2646, 0.05 µg/mL (≈ 0.139 µM); in the series with Prot. rettgeri M 1771, 0.2 µg/mL (≈ 0.555 µM); with Staph. aureus H 228, 0.05 µg/mL (≈ 0.139 µM). The same molecule yielded an NOAEL at 96 h in the series “in vivo” of 55 mg/kg. Besides, in series [6], the CC50 at 3 h was found to be 48 µg/mL (≈ 133 µM).

The values are drawn from patent US5563155A, “Individual stereosiomers of 7-[3-(aminoalkyl)-1-pyrrolidinyl]-quinolones and naphthyridones as antibacterial agents” (Warner-Lambert Company, priority 1995, dated 1996).
